Results reported in patent US11253589B2, “Modulation of the immune response” (priority 2007, dated 2022).

Columns and labels:
[1] = test system: MOG35-55-specific Treg and Teff; assay: MOG35-55-specific Treg and Teff by MHC class II tetramer FACS; format: in vivo, mouse; details: Foxp3gfp mice, ITE 200 mg/mice intraperitoneal daily
Description: To investigate the effect of AHR activation by ITE on the frequency of MOG35-55 specific Treg and effector T cells (Teff), Foxp3^gpf knock in mice were immunized with MOG35-55/CFA, treated daily with intreaperitoneal ITE ([…]) and MOG35-55-specific Treg (CD4^+ FoxP3:GFP^+) and Teff (CD4^+ FoxP3:GFP^−) were analyzed by FACS using recombinant MHC class II tetramers containing […] or the control peptide TMEV70-86.

[2] = in vivo; cited from earlier work
AHR-d mice = assay: EAE induced with MOG35-55/CFA in AHR-d mice; format: in vivo; details: TCDD 1 μg/mouse
Description: C57BL/6 mice were given a single intraperitoneal (ip) dose of TCCD, and one day later EAE was induced by immunization with MOG35-55 in CFA. TCDD was also administered orally (1 μg/mouse) to determined whether an effective dose of this ligand can be delivered via oral administration and whether this dose is capable of reducing EAE development. EAE was induced by injecting the mice subcutaneously with […] of the MOG35-55 peptide ([…] (SEQ ID NO: 156)) in complete Freund adjuvant oil. In addition, the mice received 150 ng of pertussis toxin (Sigma-Aldrich) ip on days 0 and 2. Clinical signs of EAE were assessed according to the following score: 0, no signs of disease; 1, loss of tone in the tail; 2, hind limb paresis; 3, hind limb paralysis; 4, tetraplegia; 5, moribund.
(§1) To confirm that the effects on EAE were mediated by the activation of AHR, we used C57BL/6 mice carrying the d allele of the ahr gene (AHR-d mice). This allele codes for a mutant AHR with a 10 fold reduction in its affinity for TCDD and other ligands (Okey et al., Mol Pharmacol. 35, 823-30 (1989)) due to mutations in its ligand binding sites.

CD4+ Foxp3+ Treg = assay: CD4+Foxp3+ Treg levels in AHR-d mice; format: in vivo; details: TCDD 1 μg/mouse
Text: as §1

[3] = test system: CD4+Foxp3:GFP- 2D2 T cells; assay: In vivo conversion of transferred CD4+Foxp3:GFP- 2D2 T cells into Treg; details: recipients given 1 μg/mouse TCDD, immunized 2 days later with MOG35-55
Description: To investigate if new Treg could also be generated in vivo following TCDD administration, we transferred CD4^+Foxp3:GFP^− 2D2 T cells from CD90.2 donors into wild type CD90.1 recipients. CD4^+Foxp3:GFP^− 2D2 T cells express a MOG35-55-specific T cell receptor. The recipients were administered 1 μg/mouse TCDD and were immunized 2 days later with MOG35-55. CD4^+Foxp3:GFP^+ CD90.2 T cells (donor cells that underwent conversion into Treg upon treatment with TCDD) were then quantified by FACS.

zFoxp3 = zFoxp3 expression in zebrafish embryos by real time PCR; format: in vivo; details: 3-day post-fertilization zebrafish embryos, TCDD in water, 72 hours
Description: The expression of zFoxp3 was then analyzed by real-time PCR on FACS-sorted lymphocytes, myelomonocytes and erythrocytes (Traver et al., Nat Immunol 4, 1238-46 (2003)). RNA was extracted from cells using RNAeasy columns (Qiagen, Valencia, Calif., USA), complementary DNA was prepared as recommended (Bio-Rad Laboratories, Hercules, Calif., USA) and used as template for real time PCR. The expression of Foxp3 was quantified with specific primers and probes (Applied Biosystems, Foster City, Calif., USA) on the GeneAmp 5500 Sequence Detection System (Applied Biosystems). Expression was normalized to the expression of the housekeeping gene, GAPDH.
TCDD was also used to characterize the functional relationship between AHR and Foxp3.

CD4+Foxp3:GFP- T cells = assay: In vitro conversion of CD4+Foxp3:GFP- T cells into Treg; format: cell-based, mouse; details: antibodies to CD3 and CD28 in the presence of TCDD, 5 days
Description: CD4+ T cells were purified from Foxp3gfp knock in mice using anti-CD4 beads (Miltenyi, Auburn, Calif., USA) and sorted (FACSAria™ cell sorter, BD Biosciences) into naive CD4^+ Foxp3:GFP^− or CD4^+ Foxp3:GFP T cells. CD4^+ Foxp3:GFP^− T cells were stimulated with plate bound 1 μg/ml of anti-CD3 (145-2C11, eBioscience) and 2 μg/ml of anti-CD28 (37.51, eBioscience) for 5 days, supplemented with recombinant IL-2 (50 U/ml) at day 2 and 4, and analyzed by FACS at day 5 for their differentiation into […]. TGFβ1 (2.5 ng/ml) was used as a positive control.
To establish if TCDD triggered the conversion of CD4^+Foxp3^− T cells into new Foxp3^+ Treg cells, FACS sorted CD4^+Foxp3:GFP− T cells were activated in vitro with antibodies to CD3 and CD28 in the presence of TCDD, and the generation of CD4^+Foxp3:GFP^+ Treg was followed by FACS. TGFb1 was used as a positive control.

[4] = test system: IgG serum antibodies to myelin antigens; assay: Antigen microarray of serum antibody response to myelin; format: in vivo, mouse; details: TCDD-treated mice that did not develop EAE, FDR < 0.05
Description: The antigens listed in Table 1 were spotted onto Epoxy slides (TeleChem, Sunnyvale, Calif., USA) as described (Quintana et al., Proc Natl Acad Sci USA 101 Suppl 2, 14615-21 (2004)). Antigens were spotted in replicates of 6, the microarrays were blocked for 1 h at 37° C. with 1% bovine serum albumin, and incubated for 2 hours at 37° C. with a 1:100 dilution of the test serum in blocking buffer. The arrays were then washed and incubated for 45 min at 37° C. with goat anti-mouse IgG Cy3-conjugated detection antibodies (Jackson ImmunoResearch Labs, West Grove, Pa., USA). The arrays were scanned with a ScanArray 4000X scanner (GSI Luminomics, Billerica, Mass., USA). Antigen reactivity was defined by the mean intensity of binding to the replicates of that antigen on the microarray. Raw data were normalized and analyzed using the GeneSpring software (Silicon Genetics, Redwood City, Calif., USA) with the non-parametric Wilcoxon-Mann-Whitney test, using the Benjamini and Hochberg method with a false discovery rate (FDR) of 0.05 to determine significance. The samples were clustered using a pairwise average linkage algorithm based on Spearman's rank correlation as a distance measure. […]

mouse Foxp3 locus = assay: Zebrafish microinjected with renilla-tagged mouse Foxp3 BAC; format: in vivo; details: total zebrafish lysates six days after microinjection, increasing amounts of TCDD
Description: A modified zebrafish based screening assay was established by microinjecting fertilized zebrafish eggs with a BAC construct encoding the complete mouse Foxp3 locus, with a renilla reporter inserted after the Foxp3 methionine start codon (ATG). Six days after microinjection, renilla activity was determined in total zebrafish lysates.

| Compound | frequency of MOG35-55-specific Teff [1] | frequency of MOG35-55-specific Treg [1] | toxic effects [2] | Mean day of onset (Mean ± SD) (AHR-d mice) | Mean maximum score (mean ± SD) (AHR-d mice) | progression of EAE (AHR-d mice) | levels of CD4+ Foxp3+ Treg (CD4+ Foxp3+ Treg) | conversion of CD4+Foxp3:GFP- CD90.2 donor T cells into Treg cells [3] | zFoxp3 expression (zFoxp3) | conversion of cells in culture into CD4+Foxp3:GFP+ Treg (CD4+Foxp3:GFP- T cells) | IgG serum antibodies to myelin antigens [4] | renilla luciferase activity (murine Foxp3 expression) (mouse Foxp3 locus) |
| --- | --- | --- | --- | --- | --- | --- | --- | --- | --- | --- | --- | --- |
| COC(=O)c1csc(C(=O)c2c[nH]c3ccccc23)n1 [ITE, 2-(1′H-indole-3′-carbonyl)-thiazole-4-carboxylic acid methyl ester] | decrease in the frequency | concomitant increase in the frequency | do not display the toxic effects | – | – | – | – | – | – | – | – | – |
| Clc1cc2c(cc1Cl)Oc1cc(Cl)c(Cl)cc1O2 [TCDD, 2,3,7,8 tetrachlorodibenzo-p-dioxin] | – | – | – | 17.3 ± 3.0 days | 2.2 ± 1.4 | did not inhibit the progression of EAE | did not increase the levels | significant | dose-dependent increase in zFoxp3 expression | approximately 13% | significant decrease in IgG serum antibodies to 97 myelin antigens | increased in the presence of TCDD in a dose-dependent manner |
